{"source": "patent US7863242B2", "about": "“Compositions for down-regulation of CCR5 expression and methods of use thereof” (priority 2003, dated 2011)", "key": {"HIV-1 ADA [1]": {"test_system": "HIV-1 ADA", "experiment": "Serial passage of HIV-1 ADA in PBMCs, emergence of T20 resistance (RT assay)", "type": "cell-based", "method": "HIV-1 ADA was passaged in PBMCs 21 times in the presence of RAPA, T-20 or RAPA+T20. After every passage, virus content in the culture supernatant was measured using the RT assay.\nHIV-1 replication in the presence of T20 leads to the emergence of drug resistant strains in vitro and in vivo, and this resistance is associated with mutations in the aa 36-45 of gp 41. […] To this end, HIV-1 ADA was passaged weekly for 24 weeks in the presence of RAPA, T20 and RAPA/T20 combined."}, "HIV-1 ADA [2]": {"test_system": "HIV-1 ADA", "experiment": "microbe, parasite or virus in culture", "conditions": "for reduction of p24 levels: day 7 after infection", "method": "Infectivity Assays: The following viruses were used in infection experiments: HIV-1 IIIb, HIV-1 ADA, HIV-1 BaL, HIV-1 JRFL, HIV-1 JRCSF, and HIV-1 SF162. HIV-1 IIIb is a T cell line-adapted lab strain that uses CXCR4 for entry into cells, whereas the rest are isolates that use CCR5. Viruses were obtained from the National Institutes of Health AIDS Research and Reference Reagent Program.\nFor infection of PBMCs, fresh donor PBMCs were cultured for 7 days in medium containing IL-2. On day 7, cells were exposed to the virus for 3 h. Nonadsorbed virus was removed by washing cells with PBS three times. Infected cells were cultured in IL-2 medium. Infection of MDMs was carried out as described before (Perno, 1993). Unless otherwise indicated, PBMCs were infected by using an moi of 0.001, and MDM were infected by using an moi of 0.002. Virus growth was monitored in culture supernatants by measuring p24 antigen levels by ELISA (NEN) or by measuring viral RT activity in an RT assay (Willey, 1988).\nAntiviral Activity of RAPA in PBMCs: The antiviral activity of RAPA was assayed in PBMCs that had been cultured in the presence of RAPA for 7 days before infection. Cells were infected with the X4 HIV-1 IIIb and the R5 HIV-1 ADA strains. Infected cells were cultured in the presence of RAPA (same concentration as during pretreatment) for 7 additional days, during which time virus replication and cell viability were measured.\nTo test this hypothesis, donor PBMCs were cultured in IL-2 medium in the absence or presence of RAPA (1, 10, and 100 nM). […] Infected cells were cultured in the presence of RAPA (same concentration as during pretreatment) plus 0.1 nM TAK-779. Virus production was determined 7 days after infection.\nDonor PBMCs were cultured in IL-2 medium in the absence or presence of HU (0 and 10 uM). After 7 days, cells were infected with HIV-1 ADA. Infected cells were cultured in the presence of HU (same concentration as during pretreatment) plus different concentration of TAK-779 ranging from 0, 2 and 20 nM). Virus production was determined 7 days after infection.\nIn order to determine the nature and degree of interaction between RAPA and T20, infectivity assays were performed in the presence of the drugs, alone and in combination. The infectivity assays were performed using PBMCs from healthy donors. PBMCs were cultured for 7 days in the presence of IL-2 (100 U/ml) in the presence or absence of RAPA. On day 7, cells were infected by exposure to the R5 strain HIV-1 ADA (m.o.i of 0.001) for 2 h. Non-adsorbed virus was removed by 3 washes with PBS. Infected cells were then plated in RPMI-10 supplemented with IL-2 (100 U/ml) in the presence of different concentrations of RAPA and T20. Each drug concentration was tested in triplicate. Medium was changed in day 3 after infection and drugs were added at the same concentration as before. On day 7 after infection, virus production was measured in the culture supernatants using a commercial p24 antigen ELISA (NCI, Frederick). Cell viability was determined using the MTT assay (Roche).\nThe antiviral data was then analyzed for synergy using two different methodologies, the Median Effect principle and Three Dimensional modeling."}, "human lymphocytes": {"test_system": "human lymphocytes", "experiment": "Cell cycle analysis of activated PBMCs (propidium iodide, flow cytometry)", "type": "cell-based", "conditions": "4 μM, 24 hours, PBMCs from 2 normal donors", "method": "Indirubin-3′-monoxime (IM) arrests human lymphocytes in G1 phase. PBMCs from 2 normal donors were activated in absence and presence of 4 μM Indirubin-3′-momoxime (IM) for 24 hours. Cells were then fixed with 70% Ethanol, stained with Propidium Iodide, and analyzed by Flow cytometry. Percentages of cells in each phase of the cell cycle are shown."}, "CCR5": {"test_system": "CCR5", "experiment": "CCR5 surface expression on CD4 and CD8 T lymphocytes in IL-2 cultured PBMCs (flow cytometry, mAb 182)", "type": "cell-based, human", "conditions": "days 7 and 10, five donors tested", "method": "CCR5 surface expression was measured on PBMCs cultured in the presence of IL-2 for 7-10 days."}, "CCR5 mRNA": {"test_system": "CCR5 mRNA", "experiment": "Semiquantitative RT-PCR of CCR5 transcripts in PBMC cultures", "type": "cell-based, human", "conditions": "PBMCs cultured with IL-2 and drug for 7 days", "quoted_text": "PCR Methodologies: Amplification of CCR5 and β-chemokine RNA sequences was performed by RT-PCR as described (Baba, 1996; Levine, 1996)."}}}
{"compound": "enfuvirtide", "values": [{"measurement": "antiviral activity on passaged virus", "setting": "HIV-1 ADA [1]; T20 100 nM, from the 11th passage onwards", "result": "did not exert antiviral activity"}, {"measurement": "sensitivity of passaged virus to T20", "setting": "HIV-1 ADA [1]; T20 alone, 10th passage", "result": "reduced sensitivity to T20"}, {"measurement": "inhibition of virus replication", "setting": "HIV-1 ADA [1]; T20 alone, initial 9 passages", "result": "> 75", "unit": "%"}, {"measurement": "Fa (fractional inhibition)", "setting": "HIV-1 ADA [2]; T-20 1.5 nM alone, p24 day 7", "result": 0.210}, {"measurement": "Fa (fractional inhibition)", "setting": "HIV-1 ADA [2]; T-20 3.12 nM alone, p24 day 7", "result": 0.260}, {"measurement": "Fa (fractional inhibition)", "setting": "HIV-1 ADA [2]; T-20 6.25 nM alone, p24 day 7", "result": 0.400}, {"measurement": "Fa (fractional inhibition)", "setting": "HIV-1 ADA [2]; T-20 12.5 nM alone, p24 day 7", "result": 0.600}, {"measurement": "Fa (fractional inhibition)", "setting": "HIV-1 ADA [2]; T-20 25 nM alone, p24 day 7", "result": 0.810}, {"measurement": "Fa (fractional inhibition)", "setting": "HIV-1 ADA [2]; T-20 50 nM alone, p24 day 7", "result": 0.980}, {"measurement": "IC50", "setting": "HIV-1 ADA [2]; read-out: Dm (dose at 50% inhibition, equivalent to IC50 value), drug used alone, p24 day 7", "result": 6.16, "unit": "nM"}]}
{"compound": "Cc1ccc(-c2ccc3c(c2)C=C(C(=O)Nc2ccc(C[N+](C)(C)C4CCOCC4)cc2)CCC3)cc1.[Cl-]", "note": "[TAK-779, N,N-dimethyl-N-[4-[[[2-(4-methylphenyl)-6,7-dihydro-5H-benzocyclohepten-8-yl]carbonyl]amino]benzyl]tetrahydro-2H-pyran-4-aminium chloride]", "values": [{"measurement": "reduction of p24 levels", "setting": "HIV-1 ADA [2]; 2 nM of TAK-779 alone", "result": "about 20%"}, {"measurement": "inhibition at 0.0001 µM", "setting": "HIV-1 ADA [2]; Human immunodeficiency virus 1, PBMC, 168 h, read-out: inhibition of virus replication", "result": 21, "unit": "%"}]}
{"compound": "Indirubin-3′-monoxime", "values": [{"measurement": "percentage of cells in G1 phase versus untreated control", "setting": "human lymphocytes", "result": "the % of cells in G1 increases"}]}
{"compound": "NC(=O)NO", "note": "[HU, hydroxyurea]", "values": [{"measurement": "concentrations that down-regulated CCR5 surface expression on CD4 lymphocytes", "setting": "CCR5", "result": "≥ 50", "unit": "µM"}, {"measurement": "reduction of p24 levels", "setting": "HIV-1 ADA [2]; 10 uM of HU alone", "result": "approximately 60%"}, {"measurement": "CCR5 transcripts (semiquantitative RT-PCR)", "setting": "CCR5 mRNA", "result": "decreased amounts of CCR5 transcripts"}]}
